Columns and labels:
Format in all cases: biochemical
Conditions in all cases: JAK Caliper enzyme assay
TYK2 = TYK2 (Homo sapiens (Human), UniProt P29597); assay: JAK Caliper Enzyme Assay at 1 mM ATP, TYK2
Outline: (§1)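 Inhibition is measured as reduced phosphorylation of a synthetic peptide by the recombinant human kinase domain at 1 mM ATP. Conditions give 20–30% conversion at room temperature before EDTA quench, and on-chip separation of labelled substrate and product yields percent conversion for dose–response plotting.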

JAK1 = JAK1 (Homo sapiens (Human), UniProt P23458); assay: JAK Caliper Enzyme Assay at 1 mM ATP, JAK1
Outline: (§2)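 IC50 (nM) derived from percent conversion of fluorescently labelled peptide, measured by Caliper LabChip mobility-shift separation after EDTA stop. Each JAK family kinase domain (human, recombinant) run at 1 mM ATP and room temperature, conditions set to 20-30% product; DMSO wells define uninhibited baseline.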

JAK2 = JAK2 (Homo sapiens (Human), UniProt O60674); assay: JAK Caliper Enzyme Assay at 1 mM ATP, JAK2
Outline: as §1

JAK3 = JAK3 (Homo sapiens (Human), UniProt P52333); assay: JAK Caliper Enzyme Assay at 1 mM ATP, JAK3
Outline: as §2

Sequence of TYK2 (P29597 897-1176): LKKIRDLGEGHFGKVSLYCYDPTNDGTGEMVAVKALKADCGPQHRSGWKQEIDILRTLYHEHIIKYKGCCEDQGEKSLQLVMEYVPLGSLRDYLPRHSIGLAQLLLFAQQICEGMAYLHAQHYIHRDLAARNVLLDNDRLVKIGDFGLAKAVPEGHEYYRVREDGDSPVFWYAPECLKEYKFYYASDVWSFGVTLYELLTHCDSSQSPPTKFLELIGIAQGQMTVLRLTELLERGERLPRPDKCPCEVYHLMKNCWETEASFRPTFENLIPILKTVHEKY
Sequence of JAK2 (O60674 849-1124): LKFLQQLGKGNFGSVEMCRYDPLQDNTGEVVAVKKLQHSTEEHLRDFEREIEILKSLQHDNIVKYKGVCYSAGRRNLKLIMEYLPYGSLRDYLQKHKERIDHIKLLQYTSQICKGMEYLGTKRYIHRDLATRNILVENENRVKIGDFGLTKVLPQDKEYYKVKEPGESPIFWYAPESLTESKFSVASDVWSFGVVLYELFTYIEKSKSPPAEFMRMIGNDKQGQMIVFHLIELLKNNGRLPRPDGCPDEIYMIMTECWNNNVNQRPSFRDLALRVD
Sequence of JAK3 (P52333 822-1111): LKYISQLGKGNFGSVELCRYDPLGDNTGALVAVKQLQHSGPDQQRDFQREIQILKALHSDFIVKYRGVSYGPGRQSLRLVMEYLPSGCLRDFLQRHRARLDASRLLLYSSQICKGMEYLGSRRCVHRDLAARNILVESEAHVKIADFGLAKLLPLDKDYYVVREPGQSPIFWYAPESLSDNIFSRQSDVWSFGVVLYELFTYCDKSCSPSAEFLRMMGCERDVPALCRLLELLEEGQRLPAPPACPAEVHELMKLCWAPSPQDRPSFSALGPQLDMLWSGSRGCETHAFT
Sequence of JAK1 (P23458 875-1153): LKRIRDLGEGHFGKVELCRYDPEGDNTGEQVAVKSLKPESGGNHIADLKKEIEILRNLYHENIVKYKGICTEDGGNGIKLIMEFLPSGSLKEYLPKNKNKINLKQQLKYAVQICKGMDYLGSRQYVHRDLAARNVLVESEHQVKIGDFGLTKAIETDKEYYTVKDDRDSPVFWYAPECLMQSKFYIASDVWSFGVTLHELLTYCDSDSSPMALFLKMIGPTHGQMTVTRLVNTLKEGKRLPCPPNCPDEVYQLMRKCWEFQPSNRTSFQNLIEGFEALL

SMILES	IC50 (TYK2) [nM]	IC50 (JAK1) [nM]	IC50 (JAK2) [nM]	IC50 (JAK3) [nM]
COc1nc(-c2cc(-c3cnn([C@]4(CC#N)C[C@H](C#N)C4)n3)c3cccnc3c2)cnc1N [Example 407, cis-3-{4-[7-(5-amino-6-methoxypyrazin-2-yl)quinolin-5-yl]-2H-1,2,3-triazol-2-yl}-3-(cyanomethyl)cyclobutanecarbonitrile]	257	1200	1010	> 10000
N#CC[C@]1(n2ncc(-c3cc(-c4cc[nH]c(=O)c4)cc4ncccc34)n2)C[C@H](C#N)C1 [Example 411, trans-3-(cyanomethyl)-3-{4-[7-(2-oxo-1,2-dihydropyridin-4-yl)quinolin-5-yl]-2H-1,2,3-triazol-2-yl}cyclobutanecarbonitrile]	257	> 10000	1690	> 10000
CCn1cc(-c2cc(-c3cnn(C4(CC#N)CN(S(C)(=O)=O)C4)n3)c3cccnc3c2)ccc1=O [Example 413, [3-{4-[7-(1-ethyl-6-oxo-1,6-dihydropyridin-3-yl)quinolin-5-yl]-2H-1,2,3-triazol-2-yl}-1-(methylsulfonyl)azetidin-3-yl]acetonitrile]	90	4020	682	> 10000
CS(=O)(=O)N1CC(CC#N)(n2ncc(-c3cc(-c4c[nH]c(=O)[nH]c4=O)cc4ncccc34)n2)C1 [Example 414, [3-{4-[7-(2,4-dioxo-1,2,3,4-tetrahydropyrimidin-5-yl)quinolin-5-yl]-2H-1,2,3-triazol-2-yl}-1-(methylsulfonyl)azetidin-3-yl]acetonitrile]	276	> 10000	6170	> 10000
N#CC[C@]1(n2ncc(-c3cc(-c4cnc5ncccn45)cc4ncccc34)n2)C[C@@H](C#N)C1 [Example 417, cis-3-(cyanomethyl)-3-{4-[7-(imidazo[1,2-a]pyrimidin-3-yl)quinolin-5-yl]-2H-1,2,3-triazol-2-yl}cyclobutanecarbonitrile]	110	7470	291	> 10000
N#CC[C@]1(n2ncc(-c3cc(-c4cnn5cccnc45)cc4ncccc34)n2)C[C@@H](C#N)C1 [Example 419, cis-3-(cyanomethyl)-3-{4-[7-(pyrazolo[1,5-a]pyrimidin-3-yl)quinolin-5-yl]-2H-1,2,3-triazol-2-yl}cyclobutanecarbonitrile]	105	739	200	> 10000
N#CC[C@]1(n2ncc(-c3cc(-c4cnn5cccnc45)cc4ncccc34)n2)C[C@H](C#N)C1 [Example 420, trans-3-(cyanomethyl)-3-{4-[7-(pyrazolo[1,5-a]pyrimidin-3-yl)quinolin-5-yl]-2H-1,2,3-triazol-2-yl}cyclobutanecarbonitrile]	909	> 10000	1700	> 10000
N#CCC1(n2ncc(-c3cc(-c4cnc5cccnn45)cc4ncccc34)n2)CC(C#N)C1 (stereo not drawn) [Example 421, cis-3-(cyanomethyl)-3-{4-[7-(imidazo[1,2-b]pyridazin-3-yl)quinolin-5-yl]-2H-1,2,3-triazol-2-yl}cyclobutanecarbonitrile]	113	1560	353	> 10000
Cc1nc2ccc(-c3cc(-c4cnn([C@]5(CC#N)C[C@H](C#N)C5)n4)c4cccnc4c3)nc2[nH]1 [Example 424, cis-3-(cyanomethyl)-3-{4-[7-(2-methyl-3H-imidazo[4,5-b]pyridin-5-yl)quinolin-5-yl]-2H-1,2,3-triazol-2-yl}cyclobutanecarbonitrile]	23	728	82	9360
CN1C(=O)COc2ccc(-c3cc(-c4cnn([C@]5(CC#N)C[C@H](C#N)C5)n4)c4cccnc4c3)nc21 [Example 425, cis-3-(cyanomethyl)-3-{4-[7-(4-methyl-3-oxo-3,4-dihydro-2H-pyrido[3,2-b][1,4]oxazin-6-yl)quinolin-5-yl]-2H-1,2,3-triazol-2-yl}cyclobutanecarbonitrile]	12	608	29	> 10000
CS(=O)(=O)N1CC(CC#N)(n2ncc(-c3cc(-c4ccc(CN)cc4)cc4ncccc34)n2)C1 [Example 428, [3-(4-{7-[4-(aminomethyl)phenyl]quinolin-5-yl}-2H-1,2,3-triazol-2-yl)-1-(methylsulfonyl)azetidin-3-yl]acetonitrile]	128	9320	924	> 10000
CS(=O)(=O)N1CC(CC#N)(n2ncc(-c3cc(-c4cccc(C(N)=O)c4)cc4ncccc34)n2)C1 [Example 430, 3-(5-{2-[3-(cyanomethyl)-1-(methylsulfonyl)azetidin-3-yl]-2H-1,2,3-triazol-4-yl}quinolin-7-yl)benzamide]	93	3140	909	> 10000

More lines, in order of falling IC50 (TYK2), values ahead:

IC50 (TYK2) [nM]	IC50 (JAK1) [nM]	IC50 (JAK2) [nM]	IC50 (JAK3) [nM]	SMILES
2090	> 10000	> 10000	> 10000	COc1nc(-c2cc(-c3cnn([C@]4(CC#N)C[C@@H](C#N)C4)n3)c3cccnc3c2)cnc1N [Example 408, trans-3-{4-[7-(5-amino-6-methontpyrazin-2-yl)quinolin-5-yl]-2H-1,2,3-triazol-2-yl}-3-(cyanomethyl)cyclobutanecarbonitrile]
1540	> 10000	8070	> 10000	N#CC[C@]1(n2ncc(-c3cc(-c4cnc5ncccn45)cc4ncccc34)n2)C[C@H](C#N)C1 [Example 418, trans-3-(cyanomethyl)-3-{4-[7-(imidazo[1,2-a]pyrimidin-3-yl)quinolin-5-yl]-2H-1,2,3-triazol-2-yl}cyclobutanecarbonitrile]
709	> 10000	3150	> 10000	CS(=O)(=O)N1CC(CC#N)(n2ncc(-c3cc(-c4cccc(CN)c4)cc4ncccc34)n2)C1 [Example 427, [3-(4-{7-[3-(aminomethyl)phenyl]quinolin-5-yl}-2H-1,2,3-triazol-2-yl)-1-(methylsulfonyl)azetidin-3-yl]acetonitrile]
696	3200	2300	> 10000	N#CC[C@]1(n2ncc(-c3cc(-c4cnc5[nH]ccc5n4)cc4ncccc34)n2)C[C@@H](C#N)C1 [Example 416, cis-3-(cyanomethyl)-3-{4-[7-(5H-pyrrolo[2,3-b]pyrazin-2-yl)quinolin-5-yl]-2H-1,2,3-triazol-2-yl}cyclobutanecarbonitrile]
292	5380	1460	> 10000	N#CC[C@]1(n2ncc(-c3cc(-c4cnc5c(N)nccn45)cc4ncccc34)n2)C[C@@H](C#N)C1 [Example 422, cis-3-{4-[7-(8-aminoimidazo[1,2-a]pyrazin-3-yl)quinolin-5-yl]-2H-1,2,3-triazol-2-yl}-3-(cyanomethyl)cyclobutanecarbonitrile]
167	3080	1290	> 10000	Cn1cc(-c2cc(-c3cnn(C4(CC#N)CN(S(C)(=O)=O)C4)n3)c3cccnc3c2)ccc1=O [Example 412, [3-{4-[7-(1-methyl-6-oxo-1,6-dihydropyridin-3-yl)quinolin-5-yl]-2H-1,2,3-triazol-2-yl}-1-(methylsulfonyl)azetidin-3-yl]acetonitrile]
112	4000	1120	> 10000	CS(=O)(=O)N1CC(CC#N)(n2ncc(-c3cc(-c4cccc(CO)c4)cc4ncccc34)n2)C1 [Example 429, [3-(4-{7-[3-(hydroxymethyl)phenyl]quinolin-5-yl}-2H-1,2,3-triazol-2-yl)-1-(methylsulfonyl)azetidin-3-yl]acetonitrile]
76	2250	183	> 10000	N#CC[C@]1(n2ncc(-c3cc(-c4cn5ccnc5c(N)n4)cc4ncccc34)n2)C[C@@H](C#N)C1 [Example 423, cis-3-{4-[7-(8-aminoimidazo[1,2-a]pyrazin-6-yl)quinolin-5-yl]-2H-1,2,3-triazol-2-yl}-3-(cyanomethyl)cyclobutanecarbonitrile]
53	2610	982	> 10000	CS(=O)(=O)N1CC(CC#N)(n2ncc(-c3cc(-c4ccc(=O)[nH]c4)cc4ncccc34)n2)C1 [Example 409, [1-(methylsulfonyl)-3-{4-[7-(6-oxo-1,6-dihydropyridin-3-yl)quinolin-5-yl]-2H-1,2,3-triazol-2-yl}azetidin-3-yl]acetonitrile]
39	2340	207	> 10000	N#CC[C@]1(n2ncc(-c3cc(-c4cc[nH]c(=O)c4)cc4ncccc34)n2)C[C@@H](C#N)C1 [Example 410, cis-3-(cyanomethyl)-3-{4-[7-(2-oxo-1,2-dihydropyridin-4-yl)quinolin-5-yl]-2H-1,2,3-triazol-2-yl}cyclobutanecarbonitrile]
24	1000	50	> 10000	CN1C(=O)COc2ccc(-c3cc(-c4cnn([C@]5(CC#N)C[C@@H](C#N)C5)n4)c4cccnc4c3)nc21 [Example 426, trans-3-(cyanomethyl)-3-{4-[7-(4-methyl-3-oxo-3,4-dihydro-2H-pyrido[3,2-b][1,4]oxazin-6-yl)quinolin-5-yl]-2H-1,2,3-triazol-2-yl}cyclobutanecarbonitrile]

— US11254668B2, “Pyrazolo[1,5-A]pyrazin-4-yl and related derivatives” (Pfizer Inc., priority 2017, dated 2022)
